Legend:
[1] = target: human sodium channel Nav 1.8 (Homo sapiens (Human), UniProt Q9Y5Y9); test: Automated whole-cell voltage-clamp (ScreenPatch 384P), Nav 1.8 sodium current, Protocol 2; assay type: cell-based; conditions: read-out: Nav1.8 IC50
Procedure: (§1) Biological assays were performed on Chinese hamster ovary (CHO) cells expressing the human sodium channels Nav 1.8 and Nav 1.7 stably.
(§2) The experimental voltage-clamp protocol using the whole cell configuration was established on the automated ScreenPatch® 384P platform (SP384PE, Nanion Technologies, Livingston, NJ) and recording of the results was performed with a Nanion 384-well Patch Clamp chip (NPC) (Nanion Technologies, Livingston, NJ).
(§3) Compounds of Formula (I), were diluted in eight concentrations in the extracellular solution composed of physiological saline, buffered with HEPES (mM): NaCl, 137; KCl, 4; CaCl2, 3.8; MgCl2, 1; HEPES, 10; Glucose, 10; pH 7.4. The […], 50; CsF, 90; MgCl2, 5; EGTA, 5; HEPES, 10; pH 7.2. The duration of exposure of each compound with the cells expressing Nav 1.7 or Nav 1.8 was at least five minutes and the assays were performed at room temperature.
(§4) The measurements of the sodium currents of Nav 1.8 and Nav 1.7 were obtained using the voltage protocols described below: • Protocol 1: A holding voltage of-90 mV was established followed by a voltage phase of 200 ms to-120 mV, followed by a voltage step of 10 mV for 1 second for Nav 1.8 or 0 mV for Nav 1.7, followed by a step of-100 mV for 20 ms, followed by a step of 20 ms for 10 mV for Nav 1.8 or 0 mV for Nav 1.7 (TP1A) before returning to the holding voltage of-90 mV. • Protocol 2: A holding voltage of-100 mV was established followed by an inactivation voltage step at −40 mV for 8 seconds, followed by a −100 mV step for 20 ms, followed by a 20 ms step for 10 mV for Nav 1.8 or 0 mV for Nav 1.7 (TP1A) before returning to the holding voltage of-100 mV.
(§5) Protocols were repeated at a frequency of 0.1 Hz (Protocol 1) or 0.05 Hz (Protocol 2) and current amplitude was quantified over the TP1A phase log. The variation in the peak amplitude of the current was evaluated according to the Formula described below, after exposure of the cells expressing the channels, at each concentration of the different compounds:
(§6) where ITP1A,basal, and ITP1A,molecule represent the entry peaks of sodium currents into TP1A prior to exposure to the compound and in the presence of the compound, respectively.
(§7) The decrease in peak current amplitude, after exposure of the cells to the compounds, was used to calculate the percent relative blocking of the channels relative to the positive control according to the Formula below: […]
(§8) where % V and % CP represent the averages of the values of current inhibition with a vehicle (DMSO) and positive controls, respectively. The sodium currents of the positive control were considered as 100%.
(§9) where [Test] represents the concentration of the evaluated molecule, IC50 is the concentration of the compound that generates half of the maximum inhibition, N is the Hill's coefficient and % Block′ is the percentage of the sodium channel current (Nav 1.8 and Nav 1.7) inhibited at each concentration of the evaluated molecule. Data were obtained by non linear least squares regression with XL fit for Excel (Microsoft, Redmond, WA).
(§10) Compounds were tested in at least one assay to obtain the IC50 value.

[2] = target: human sodium channel Nav 1.7 (Homo sapiens (Human), UniProt Q15858); test: Automated whole-cell voltage-clamp (ScreenPatch 384P), Nav 1.7 sodium current, Protocol 2; assay type: cell-based; conditions: read-out: Nav1.7 IC50
Sequence of human sodium channel Nav 1.7 (Q15858 whole entry): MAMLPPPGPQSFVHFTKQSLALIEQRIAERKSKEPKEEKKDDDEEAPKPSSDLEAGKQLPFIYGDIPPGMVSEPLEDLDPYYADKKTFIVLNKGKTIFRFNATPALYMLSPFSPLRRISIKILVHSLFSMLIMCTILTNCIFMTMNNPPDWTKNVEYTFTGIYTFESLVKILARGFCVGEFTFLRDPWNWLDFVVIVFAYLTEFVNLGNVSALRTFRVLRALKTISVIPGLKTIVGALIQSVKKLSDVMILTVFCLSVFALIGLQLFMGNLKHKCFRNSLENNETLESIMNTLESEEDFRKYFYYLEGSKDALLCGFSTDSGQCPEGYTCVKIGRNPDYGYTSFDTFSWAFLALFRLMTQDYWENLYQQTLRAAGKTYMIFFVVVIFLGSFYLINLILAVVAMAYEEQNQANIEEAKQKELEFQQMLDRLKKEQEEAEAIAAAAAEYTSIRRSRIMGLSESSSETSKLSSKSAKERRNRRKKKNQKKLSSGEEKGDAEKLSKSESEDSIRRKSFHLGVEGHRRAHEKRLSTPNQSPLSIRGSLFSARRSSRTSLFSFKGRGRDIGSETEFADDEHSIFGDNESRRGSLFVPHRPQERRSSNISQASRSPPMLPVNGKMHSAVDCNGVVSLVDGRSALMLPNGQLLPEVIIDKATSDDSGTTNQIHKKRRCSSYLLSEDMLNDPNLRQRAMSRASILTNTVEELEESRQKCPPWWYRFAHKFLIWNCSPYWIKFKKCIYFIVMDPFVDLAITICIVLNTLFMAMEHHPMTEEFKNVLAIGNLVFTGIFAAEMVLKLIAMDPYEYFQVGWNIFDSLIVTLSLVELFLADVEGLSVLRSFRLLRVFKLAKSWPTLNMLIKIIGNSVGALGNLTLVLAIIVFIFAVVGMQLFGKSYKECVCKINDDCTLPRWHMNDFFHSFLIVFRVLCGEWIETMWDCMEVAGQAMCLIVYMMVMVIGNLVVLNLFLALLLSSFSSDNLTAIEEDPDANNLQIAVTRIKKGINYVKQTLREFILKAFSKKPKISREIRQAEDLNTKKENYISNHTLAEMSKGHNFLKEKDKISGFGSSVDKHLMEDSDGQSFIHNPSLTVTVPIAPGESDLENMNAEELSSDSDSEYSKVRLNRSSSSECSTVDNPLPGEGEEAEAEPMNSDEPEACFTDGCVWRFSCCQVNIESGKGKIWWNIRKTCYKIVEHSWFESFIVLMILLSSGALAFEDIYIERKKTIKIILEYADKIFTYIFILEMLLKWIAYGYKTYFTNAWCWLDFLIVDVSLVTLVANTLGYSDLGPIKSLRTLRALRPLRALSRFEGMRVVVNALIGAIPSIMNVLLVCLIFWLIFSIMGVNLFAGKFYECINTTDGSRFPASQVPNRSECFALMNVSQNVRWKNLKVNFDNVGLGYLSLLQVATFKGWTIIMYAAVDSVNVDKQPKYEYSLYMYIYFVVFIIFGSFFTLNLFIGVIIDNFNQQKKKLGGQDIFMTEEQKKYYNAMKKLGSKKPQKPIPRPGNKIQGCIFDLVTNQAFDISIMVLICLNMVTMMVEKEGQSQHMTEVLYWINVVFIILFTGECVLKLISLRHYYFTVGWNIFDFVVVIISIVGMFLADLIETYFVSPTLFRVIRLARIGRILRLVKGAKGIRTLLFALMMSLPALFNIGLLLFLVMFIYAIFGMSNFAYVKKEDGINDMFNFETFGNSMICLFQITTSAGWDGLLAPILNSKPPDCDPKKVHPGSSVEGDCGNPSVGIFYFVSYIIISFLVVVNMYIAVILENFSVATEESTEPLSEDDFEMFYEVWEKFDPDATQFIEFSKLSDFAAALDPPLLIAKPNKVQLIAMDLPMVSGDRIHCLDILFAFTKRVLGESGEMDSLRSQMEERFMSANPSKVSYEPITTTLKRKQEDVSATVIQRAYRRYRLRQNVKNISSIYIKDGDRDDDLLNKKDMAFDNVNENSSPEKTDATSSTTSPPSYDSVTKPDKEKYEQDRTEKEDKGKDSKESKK
Procedure: as §1, §2, §3, §4, §5, §6, §7, §8, §9, §10

Sequence of human sodium channel Nav 1.8 (Q9Y5Y9 whole entry): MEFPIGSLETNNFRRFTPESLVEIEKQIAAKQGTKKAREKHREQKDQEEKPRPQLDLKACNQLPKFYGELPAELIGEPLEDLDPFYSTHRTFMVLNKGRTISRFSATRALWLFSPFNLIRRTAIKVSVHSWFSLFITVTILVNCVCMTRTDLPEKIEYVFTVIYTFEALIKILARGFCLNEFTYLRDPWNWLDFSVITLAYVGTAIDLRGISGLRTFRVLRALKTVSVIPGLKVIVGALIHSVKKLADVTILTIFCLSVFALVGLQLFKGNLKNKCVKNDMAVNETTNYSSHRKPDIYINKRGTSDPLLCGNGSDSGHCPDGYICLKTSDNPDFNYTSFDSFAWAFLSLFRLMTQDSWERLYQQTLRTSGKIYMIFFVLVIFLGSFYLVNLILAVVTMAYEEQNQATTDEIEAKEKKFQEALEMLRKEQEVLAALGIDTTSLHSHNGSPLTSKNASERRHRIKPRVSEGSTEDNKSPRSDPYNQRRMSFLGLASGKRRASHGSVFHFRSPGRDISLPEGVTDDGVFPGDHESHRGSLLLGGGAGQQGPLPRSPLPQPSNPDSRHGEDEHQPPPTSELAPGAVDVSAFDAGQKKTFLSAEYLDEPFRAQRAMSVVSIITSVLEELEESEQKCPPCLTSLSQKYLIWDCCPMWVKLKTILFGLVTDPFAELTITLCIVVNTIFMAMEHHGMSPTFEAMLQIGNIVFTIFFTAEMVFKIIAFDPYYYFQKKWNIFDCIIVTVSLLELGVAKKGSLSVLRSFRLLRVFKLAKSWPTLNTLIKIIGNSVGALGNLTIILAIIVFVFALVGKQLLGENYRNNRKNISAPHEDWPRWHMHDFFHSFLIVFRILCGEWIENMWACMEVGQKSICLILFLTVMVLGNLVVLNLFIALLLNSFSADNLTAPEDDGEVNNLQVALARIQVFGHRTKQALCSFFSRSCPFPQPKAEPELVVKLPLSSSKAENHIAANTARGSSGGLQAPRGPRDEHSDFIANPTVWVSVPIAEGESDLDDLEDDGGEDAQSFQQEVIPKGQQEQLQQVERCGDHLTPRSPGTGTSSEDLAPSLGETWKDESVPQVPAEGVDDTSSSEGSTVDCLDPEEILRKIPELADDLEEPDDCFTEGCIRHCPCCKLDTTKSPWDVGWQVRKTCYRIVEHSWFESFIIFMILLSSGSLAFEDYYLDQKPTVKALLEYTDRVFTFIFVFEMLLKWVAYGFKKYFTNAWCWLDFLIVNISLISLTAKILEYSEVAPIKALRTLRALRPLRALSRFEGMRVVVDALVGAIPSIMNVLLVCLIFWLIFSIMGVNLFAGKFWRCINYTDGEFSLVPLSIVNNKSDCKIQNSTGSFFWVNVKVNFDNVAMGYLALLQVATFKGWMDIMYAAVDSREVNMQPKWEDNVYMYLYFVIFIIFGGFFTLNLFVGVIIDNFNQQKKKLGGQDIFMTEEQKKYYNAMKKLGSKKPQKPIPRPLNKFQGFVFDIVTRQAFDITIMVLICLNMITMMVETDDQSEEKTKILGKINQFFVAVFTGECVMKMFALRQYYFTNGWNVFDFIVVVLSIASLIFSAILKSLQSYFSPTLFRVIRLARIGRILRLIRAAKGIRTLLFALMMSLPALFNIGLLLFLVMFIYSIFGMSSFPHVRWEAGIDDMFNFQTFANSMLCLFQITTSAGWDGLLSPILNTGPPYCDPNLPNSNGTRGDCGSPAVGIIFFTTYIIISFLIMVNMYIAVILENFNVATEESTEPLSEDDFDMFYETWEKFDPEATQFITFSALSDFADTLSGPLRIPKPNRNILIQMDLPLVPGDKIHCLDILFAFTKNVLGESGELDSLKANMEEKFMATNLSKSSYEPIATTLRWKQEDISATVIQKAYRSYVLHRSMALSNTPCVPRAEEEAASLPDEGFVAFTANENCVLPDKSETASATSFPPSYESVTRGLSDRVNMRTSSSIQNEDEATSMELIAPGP

IC50 [1]	IC50 [2]	SMILES
> 1 µM	3.59 µM	COc1ccc(-c2cncc(C(=O)N/N=C/c3ccccc3C(C)(C)C)n2)cc1 [Compound 52, (E)-N′-(2-(tert-butyl)benzylidene)-6-(4-methoxyphenyl)pyrazine-2-carbohydrazide]
0.441 µM	> 10 µM	COc1ccc(-c2cncc(C(=O)N/N=C/c3cccc(F)c3)n2)cc1 [Compound 53, (E)-N′-(3-fluorobnezylidene)-6-(4-methoxyphenyl)pyrazine-2-carbohydrazide]
0.311 µM	2.91 µM	COc1ccc(-c2cncc(C(=O)N/N=C/c3cccc(Cl)c3)n2)cc1 [Compound 54, (E)-N′-(3-chlorobenzylidene)-6-(4-methoxyphenyl)pyrazine-2-carbohydrazide]
0.476 µM	2.19 µM	COc1ccc(-c2cncc(C(=O)N/N=C/c3cccc(Br)c3)n2)cc1 [Compound 55, (E)-N′-(3-bromobenzylidene)-6-(4-methoxyphenyl)pyrazine-2-carbohydraizde]
0.462 µM	5.48 µM	COc1ccc(-c2cncc(C(=O)N/N=C/c3cccc(C(F)(F)F)c3)n2)cc1 [Compound 56, (E)-6-(4-methoxyphenyl)-N′-(3-(trifluoromethyl)benzylidene)pyrazine-2-carbohydrazide]
0.097 µM	1.05 µM	COc1ccc(-c2cncc(C(=O)N/N=C/c3cccc(C)c3)n2)cc1 [Compound 58, (E)-6-(4-methoxyphenyl)-N′-(3-methylbenzylidene)pyrazine-2-carbohydrazide]
0.492 µM	1.85 µM	COc1ccc(-c2cncc(C(=O)N/N=C/c3cccc(C(C)(C)C)c3)n2)cc1 [Compound 59, (E)-N′-(3-(tert-butyl)benzylidene)-6-(4-methoxyphenyl)pyrazine-2-carbohydrazide]
0.34 µM	5.19 µM	COc1ccc(-c2cncc(C(=O)N/N=C/c3ccc(F)cc3)n2)cc1 [Compound 60, (E)-N′-(4-fluorobenzylidene)-6-(4-methoxyphenyl)pyrazine-2-carbohydrazide]
0.614 µM	7.02 µM	COc1ccc(-c2cncc(C(=O)N/N=C/c3ccc(Cl)cc3)n2)cc1 [Compound 61, (E)-N′-(4-chlorobenzylidene)-6-(4-methoxyphenyl)pyrazine-2-carbohydrazide]
0.761 µM	> 10 µM	COc1ccc(-c2cncc(C(=O)N/N=C/c3ccc(Br)cc3)n2)cc1 [Compound 62, (E)-N′-(4-bromobenzylidene)-6-(4-methoxyphenyl)pyrazine-2-carbohydrazide]
1 µM	8.16 µM	COc1ccc(-c2cncc(C(=O)N/N=C/c3ccc(N(C)C)cc3)n2)cc1 [Compound 64]
0.8 µM	6.6 µM	COc1ccc(-c2cncc(C(=O)N/N=C/c3ccc(C)cc3)n2)cc1 [Compound 65, (E)-6-(4-methoxyphenyl)-N′-(4-methylbenzylidene)pyrazine-2-carbohydrazide]
> 1 µM	> 10 µM	COc1ccc(-c2cncc(C(=O)N/N=C/c3ccc(C(C)(C)C)cc3)n2)cc1 [Compound 66, (E)-N′-(4-(tert-butyl)benzylidene)-6-(4-methoxyphenyl)pyrazine-2-carbohydrazide]
0.747 µM	1.93 µM	CCOc1cc(/C=N/NC(=O)c2cncc(-c3ccc(OC)cc3)n2)cc(OCC)c1 [Compound 67, (E)-N′-(3,5-diethoxybenzylidene)-6-(4-methoxyphenyl)pyrazine-2-carbohydrazide]
0.777 µM	> 10 µM	COc1ccc(-c2cncc(C(=O)N/N=C/c3cc(C(F)(F)F)cc(C(F)(F)F)c3)n2)cc1 [Compound 73, (E)-N′-(3,5-bis(trifluoromethyl)benzylidene)-6-(4-methoxyphenyl)pyrazine-2-carbohydrazide]
> 1 µM	> 10 µM	COc1ccc(-c2cncc(C(=O)N/N=C/c3cc(C(C)(C)C)cc(C(C)(C)C)c3)n2)cc1 [Compound 76, (E)-N′-(3,5-di-tert-butylbenzylidene)-6-(4-methoxyphenyl)pyrazine-2-carbohydrazide]
> 1 µM	> 10 µM	COc1ccc(-c2cncc(C(=O)N/N=C/c3cccnc3)n2)cc1 [Compound 77, (E)-6-(4-methoxyphenyl)-N′-(pyridin-3-ylmethylene)pyrazine-2-carbohydrazide]
0.103 µM	0.135 µM	CCCCOc1ccc(-c2cncc(C(=O)N/N=C/c3cc(OC)cc(OC)c3)n2)cc1 [Compound 83]

Second part, the compound before the results:

SMILES	IC50 [1]	IC50 [2]
COc1ccc(-c2cncc(C(=O)N/N=C/c3ccccc3F)n2)cc1 [Compound 46, (E)-N′-(2-fluorobenzylidene)-6-(4-methoxyphenyl)pyrazine-2-carbohydrazide]	0.178 µM	1.99 µM
COc1ccc(-c2cncc(C(=O)N/N=C/c3ccccc3Cl)n2)cc1 [Compound 47, (E)-N′-(2-chlorobenzylidene)-6-(4-methoxyphenyl)pyrazine-2-carbohydrazide]	0.082 µM	1.42 µM
COc1ccc(-c2cncc(C(=O)N/N=C/c3ccccc3Br)n2)cc1 [Compound 48, (E)-N′-(2-bromobenzylidene)-6-(4-methoxyphenyl)pyrazine-2-carbohydrazide]	0.233 µM	0.798 µM
COc1ccc(-c2cncc(C(=O)N/N=C/c3ccccc3C(F)(F)F)n2)cc1 [Compound 49, (E)-6-(4-methoxyphenyl)-N′-(2-(trifluoromethyl)benzylidene)pyrazine-2-carbohydrazide]	0.158 µM	1.31 µM
COc1ccc(-c2cncc(C(=O)N/N=C/c3ccccc3C)n2)cc1 [Compound 51, (E)-6-(4-methoxyphenyl)-N′-(2-methylbenzylidene)pyrazine-2-carbohydrazide]	0.131 µM	1.38 µM
COc1ccc(-c2cncc(C(=O)N/N=C/c3ccc(C(F)(F)F)cc3)n2)cc1 [Compound 63, (E)-6-(4-methoxyphenyl)-N′-(4-(trifluoromethyl)benzylidene)pyrazine-2-carbohydrazide]	> 1 µM	> 10 µM
COc1ccc(-c2cncc(C(=O)N/N=C/c3ccc(OC)cc3OC)n2)cc1 [Compound 78, (E)-N′-(2,4-dimethoxybenzylidene)-6-(4-methoxyphenyl)pyrazine-2-carbohyrazide]	0.841 µM	7.15 µM
COc1ccc(-c2cncc(C(=O)N/N=C/c3c(OC)cccc3OC)n2)cc1 [Compound 79, (E)-N′-(2,6-dimethoxybenzylidene)-6-(4-methoxyphenyl)pyrazine-2-carbohydrazide]	> 1 µM	> 10 µM
COc1ccc(-c2cncc(C(=O)N/N=C/c3ccc(OC)c(OC)c3OC)n2)cc1 [Compound 82, (E)-6-(4-methoxyphenyl)-N′-(2,3,4-trimethoxybenzylidene)pyrazine-2-carbohydrazide]	> 1 µM	2.77 µM
CCCCOc1ccc(-c2cncc(C(=O)N/N=C/c3cc(C)cc(C)c3)n2)cc1 [Compound 84, (E)-6-(4-butoxyphenyl)-N′-(3,5-dimethylbenzylidene)pyrazine-2-carbohydrazide]	0.152 µM	0.179 µM
COc1cc(/C=N/NC(=O)c2cncc(-c3ccc(OCC(C)C)cc3)n2)cc(OC)c1 [Compound 85, (E)-N′-(3,5-dimethoxybenzylidene)-6-(4-isobutoxyphenyl)pyrazine-2-carbohydrazide]	0.0318 µM	0.159 µM
Cc1cc(C)cc(/C=N/NC(=O)c2cncc(-c3ccc(OCC(C)C)cc3)n2)c1 [Compound 86, (E)-N′-(3,5-dimethylbenzylidene)-6-(4-isobutoxyphenyl)pyrazine-2-carbohydrazide]	0.209 µM	0.141 µM
COc1cc(/C=N/NC(=O)c2cncc(-c3ccc(OC(C)(C)C)cc3)n2)cc(OC)c1 [Compound 87, (E)-6-(4-(tert-butoxy)phenyl)-N′-(3,5-dimethoxybenzylidene)pyrazine-2-carbohydrazide]	0.447 µM	0.264 µM
